Results taken from PubChem BioAssay (NCI).
Several values for one entry are separate records, joined by “and”; a condition that tells them apart may be missing. Equal entries are not always repeated.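 96-well plates; 48 h exposure; 5 concentrations. Endpoints by linear interpolation between flanking doses. Not reached: highest tested concentration assigned. GI50: concentration for 50% inhibition of growth. TGI: concentration producing complete growth inhibition.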

What was measured:
Test in all cases: NCI anticancer screen, dose series, 48 h
A498 renal = tested on: A498 renal
COLO 205 colon = tested on: COLO 205 colon
HCT-15 colon = tested on: HCT-15 colon
HL-60(TB) leukemia = tested on: HL-60(TB) leukemia
HS 578T breast = tested on: HS 578T breast
LOX IMVI melanoma = tested on: LOX IMVI melanoma
M14 melanoma = tested on: M14 melanoma
MCF7 breast = tested on: MCF7 breast
NCI-H23 lung = tested on: NCI-H23 lung
UACC-62 melanoma = tested on: UACC-62 melanoma

| Structure (SMILES) | GI50 (A498 renal) | TGI (A498 renal) | GI50 (COLO 205 colon) | TGI (COLO 205 colon) | GI50 (HCT-15 colon) | TGI (HCT-15 colon) | GI50 (HL-60(TB) leukemia) | TGI (HL-60(TB) leukemia) | GI50 (HS 578T breast) | TGI (HS 578T breast) | GI50 (LOX IMVI melanoma) | TGI (LOX IMVI melanoma) | GI50 (M14 melanoma) | TGI (M14 melanoma) | GI50 (MCF7 breast) | TGI (MCF7 breast) | GI50 (NCI-H23 lung) | TGI (NCI-H23 lung) | GI50 (UACC-62 melanoma) | TGI (UACC-62 melanoma) |
| --- | --- | --- | --- | --- | --- | --- | --- | --- | --- | --- | --- | --- | --- | --- | --- | --- | --- | --- | --- | --- |
| O=C(Nc1ccc(Cl)c(Cl)c1)Nc1ccccc1O | 12.2 µM | 27.2 µM | 5.38 µM | 18.6 µM | 4.46 µM | 23.9 µM | 3.7 µM | 36.2 µM | 6.69 µM | 37.5 µM | 4.58 µM | 24.2 µM | 17.7 µM | 61.9 µM | 4.14 µM | 21.3 µM | 2.98 µM | 16.1 µM | 5.12 µM | 19.8 µM |
| C=C1CC[C@@H](C(C)C)C[C@@H]2[C@H]([C@H](O)C[C@]2(C)O)[C@@]2(C)CC[C@@H]1O2 | 26 µM | 42.9 µM | 20 µM | 34.9 µM | 14.6 µM | 27.7 µM | 22.6 µM | 57 µM | 31.5 µM | 82.7 µM | 14.7 µM | 27.9 µM | 19.3 µM | 33.4 µM | 16.2 µM | 29.7 µM | 20.1 µM | 42.7 µM | – | – |
| O=C(OCc1ccc2c(Cl)cc(Cl)c(O)c2n1)N1CCN(C(=O)c2cc3cc(F)ccc3[nH]2)CC1 | 0.504 µM | 5.48 µM | 38.7 µM | > 100 µM | 1.14 µM | > 100 µM | 1.06 µM | 3.53 µM | 1.13 µM | > 100 µM | 0.453 µM | > 100 µM | 0.675 µM | > 100 µM | 0.404 µM | > 100 µM | 2.25 µM | > 100 µM | 1.28 µM | > 100 µM |
| C=CCN1CC2CON(C(=O)C(OC)(c3ccccc3)C(F)(F)F)C2C1C(C)C (stereo not drawn) | 23.5 µg/mL | 92 µg/mL | 26 µg/mL | – | 35.6 µg/mL | – | 6.09 µg/mL | 23.3 µg/mL | 37.4 µg/mL | – | 26.6 µg/mL | – | 30.3 µg/mL | – | 26.2 µg/mL | 78.7 µg/mL | 37.4 µg/mL | – | 45.1 µg/mL | – |
| CCN(CC)CCNC(=O)c1ccc(C)c(OCc2ccccc2)c1[N+](=O)[O-] | – | > 82.8 µM | – | 30.8 µM | – | 47.4 µM | – | 53.3 µM | – | > 63.6 µM | – | 49.9 µM | – | 32.3 µM | – | > 53.1 µM | – | > 100 µM | – | 39.6 µM |
| COc1ccc2c(Oc3ccc(NC(=O)c4c(C)n(CC(C)(C)O)n(-c5ccccc5)c4=O)nc3)ccnc2c1 | 4.41 µM | 85.1 µM | > 73.4 µM | > 100 µM | 6.75 µM | > 100 µM | 14.6 µM | > 62.3 µM | 21.1 µM | > 100 µM | 10.9 µM | > 100 µM | 6.29 µM | > 100 µM | 26.2 µM | 97.7 µM | 18.4 µM | > 100 µM | 6.14 µM | 42.2 µM |
| O=C(N/N=C/c1c(Cl)cccc1Cl)c1ccc(C(F)(F)F)nc1Nc1cccc(C(F)(F)F)c1 | 0.603 µM | 2.39 µM | 0.67 µM | 2.59 µM | 0.437 µM | > 100 µM | 0.552 µM | – | 1.75 µM | 18 µM | 0.677 µM | 11.5 µM | 1.6 µM | > 31.1 µM | 1.03 µM | > 35.8 µM | 1.42 µM | > 21.8 µM | 1.39 µM | 4.12 µM |
| Cn1c(=O)c2c(ncn2CC(=O)Nc2ccc(-c3ccccc3)nn2)n(C)c1=O | 54.1 µM | > 100 µM | > 100 µM | > 100 µM | > 100 µM | > 100 µM | 49.9 µM | > 100 µM | > 100 µM | > 100 µM | > 100 µM | > 100 µM | 10.4 µM | > 100 µM | > 100 µM | > 100 µM | > 100 µM | > 100 µM | 84.7 µM | > 100 µM |
| CN1CCN(c2ccc(Nc3ncc4cc(C#N)c(=O)n(C5CCCC5)c4n3)cc2)CC1 | 0.199 µM | 2.24 µM | 0.797 µM | > 100 µM | 0.94 µM | > 100 µM | 0.595 µM | 4.2 µM | 0.807 µM | 6.07 µM | 0.58 µM | 3.51 µM | 1.39 µM | > 100 µM | 0.346 µM | > 100 µM | – | – | 4 µM | > 100 µM |
| O=c1[nH]c(=O)n([C@H]2CCCO2)cc1F | > 2170 µM | 979 µM and > 5000 µM | 1090 µM | > 5000 µM | 1050 µM | > 5000 µM | 1030 µM | > 5000 µM | – | > 4650 µM | 1120 µM | > 5000 µM | 1450 µM | > 5000 µM | 575 µM | > 5000 µM | 936 µM | > 5000 µM | 2040 µM | > 5000 µM |
| COc1ccc2c3c(Nc4ccc(/C(C)=N/O)cc4)[nH]c4ccccc4c-3c(N=O)c2c1 | 12.9 µM | 27.2 µM | 19.5 µM | 34.9 µM | 1.81 µM | 4.56 µM | 1.26 µM | 3.06 µM | 7.04 µM | 37 µM | – | – | 2.44 µM | 5.64 µM | 0.843 µM | > 100 µM | 4.59 µM | 18.2 µM | 7.91 µM | 23.7 µM |
| C[C@]12CC[C@@H]3c4ccc(O)c([N+](=O)[O-])c4CC[C@H]3[C@@H]1CC[C@@H]2NS(=O)(=O)c1cccc(Br)c1 | 2.06 µM | 5.87 µM | 2.78 µM | 7.26 µM | 1.59 µM | 3.09 µM | 2.4 µM | 6.04 µM | 2.23 µM | 6 µM | – | – | 1.91 µM | 4.11 µM | 1.8 µM | 3.93 µM | 2 µM | 5.06 µM | 1.6 µM | 3.69 µM |
